Source: patent US4104372A, “1-N-(α-hydroxy-ω-aminoalkanoyl) derivatives of 3'-deoxykanamycin A and the production thereof” (Zaidan Hojin Biseibutsu Kagaku Kenkyu Kai, priority 1975, dated 1978)
Converted amounts (≈) assume the structure as drawn.

Tests used:
[1] = system: Escherichia coli K-12 JR66/W677; experiment: Minimum inhibitory concentration, agar dilution-streak method; format: cell-based; conditions: K12JR66/W677, 18 h, read-out: Minimum Inhibitory Concentration
Protocol: (§1) The minimum inhibitory concentrations (mcg/ml) of the new compounds 1-N-((S)-γ-amino-α-hydroxybutyryl)-3'-deoxykanamycin A (abbreviated as S-AHB-DKA); 1-N-((SR)-β-amino-α-hydroxypropionyl)-3'-deoxykanamycin A (abbreviated as SR-AHP-DKA); 1-N-((S)-δ-amino-α-hydroxyvaleryl)-3'-deoxykanamycin A (abbreviated as S-AHV-DKA); and 1-N-((S)-γ-amino-α-hydroxybutyryl)-6'-N-methyl-3'-deoxykanamycin A (abbreviated as S-AHB-MDKA) against various organisms were determined according to agar dilution-streak method (nutrient agar) at 37° C, the estimation being made after 18 hours incubation. For the comparison purpose, the minimum inhibitory concentrations (mcg/ml) of the parent antibiotic 3'-deoxykanamycin A, as well as 1-N-((S)-γ-amino-α-hydroxybutyryl)kanamycin A (abbreviated as AHB-KMA) which is known from U.S. Pat. No. 3,781,268 were also determined in the same manner as stated above.

[2] = system: Escherichia coli K-12 LA 290 R55; experiment: as above; format: cell-based; conditions: K12LA290R55, 18 h, read-out: Minimum Inhibitory Concentration
Protocol: as §1

[3] = system: Escherichia coli K-12 ML 1410; experiment: as above; format: cell-based; conditions: K12ML1410, E. coli K-12 ML 1410, nutrient agar, 37° C, 18 hours
Protocol: as §1

[4] = system: Escherichia coli K-12 ML 1629; experiment: as above; format: cell-based; conditions: K12ML1629, E. coli K-12 ML 1629, nutrient agar, 37° C, 18 hours
Protocol: as §1

[5] = system: Escherichia coli K-12 ML 1630; experiment: as above; format: cell-based; conditions: K12ML1630, E. coli K-12 ML 1630, nutrient agar, 37° C, 18 hours
Protocol: as §1

[6] = system: Escherichia coli K-12 W677; experiment: as above; format: cell-based; conditions: K12W677, E. coli K-12 W677, nutrient agar, 37° C, 18 hours
Protocol: as §1

Escherichia coli K-12 = experiment: as above; format: cell-based; conditions: K12, E. coli K-12, nutrient agar, 37° C, 18 hours
Protocol: as §1

[7] = system: Pseudomonas aeruginosa A3; experiment: as above; format: cell-based; conditions: P. aeruginosa A3, nutrient agar, 37° C, 18 hours
Protocol: as §1

[8] = system: Pseudomonas aeruginosa GN315; experiment: as above; format: cell-based; conditions: P. aeruginosa GN315, nutrient agar, 37° C, 18 hours
Protocol: as §1

[9] = system: Pseudomonas aeruginosa No. 12; experiment: as above; format: cell-based; conditions: P. aeruginosa No. 12, nutrient agar, 37° C, 18 hours
Protocol: as §1

[10] = system: Staphylococcus aureus FDA 209P; experiment: as above; format: cell-based; conditions: FDA209P, S. aureus FDA 209P, nutrient agar, 37° C, 18 hours
Protocol: as §1

[11] = system: drug-resistant bacteria capable of producing the 3'-phosphotransferase; conditions: 3'-phosphotransferase producers; cited from earlier work
[12] = system: kanamycin-resistant bacteria and ribostamycin-resistant bacteria; conditions: cited from earlier work
[13] = system: various kanamycin-resistant bacteria and Pseudomonas aeruginosa (for example, Pseudomonas aeruginosa GN 315) capable of producing the 6'-acetyltransferase; conditions: 6'-acetyltransferase producers; cited from earlier work

SMILES | MIC [1] [µg/mL] | MIC [2] [µg/mL] | MIC [3] [µg/mL] | MIC [4] [µg/mL] | MIC [5] [µg/mL] | MIC [6] [µg/mL] | MIC (Escherichia coli K-12) [µg/mL] | MIC [7] [µg/mL] | MIC [8] [µg/mL] | MIC [9] [µg/mL] | MIC [10] [µg/mL] | effectiveness against drug-resistant bacteria [11] | activity against resistant bacteria [12] | activity against resistant bacteria [13]
NCC[C@H](O)C(=O)N[C@@H]1C[C@H](N)[C@@H](O[C@H]2O[C@H](CN)[C@@H](O)C[C@H]2O)[C@H](O)[C@H]1O[C@H]1O[C@H](CO)[C@@H](O)[C@H](N)[C@H]1O [S-AHB-DKA, 1-N-((S)-γ-amino-α-hydroxybutyryl)-3'-deoxykanamycin A] | 0.78 (≈ 1.37 µM) | 0.78 (≈ 1.37 µM) | 0.39 (≈ 0.685 µM) | 0.39 (≈ 0.685 µM) | 0.78 (≈ 1.37 µM) | < 0.2 | 0.39 (≈ 0.685 µM) | 3.12 (≈ 5.48 µM) | 100 (≈ 176 µM) | 3.12 (≈ 5.48 µM) | 0.39 (≈ 0.685 µM) |  |  | 
NC[C@H]1O[C@H](O[C@H]2[C@H](O)[C@@H](O[C@H]3O[C@H](CO)[C@@H](O)[C@H](N)[C@H]3O)[C@H](N)C[C@@H]2N)[C@H](O)C[C@@H]1O [DKA, 3'-deoxykanamycin A] | > 100 | 3.12 (≈ 6.66 µM) | 3.12 (≈ 6.66 µM) | 3.12 (≈ 6.66 µM) | 3.12 (≈ 6.66 µM) | 3.12 (≈ 6.66 µM) | 3.12 (≈ 6.66 µM) | 3.12 (≈ 6.66 µM) | > 100 | 12.5 (≈ 26.7 µM) | 1.56 (≈ 3.33 µM) | practically effective against the drug-resistant bacteria |  | 
NCC[C@H](O)C(=O)N[C@@H]1C[C@H](N)[C@@H](O[C@H]2O[C@H](CN)[C@@H](O)[C@H](O)[C@H]2N)[C@H](O[C@@H]2O[C@H](CO)[C@@H](O)[C@H]2O)[C@H]1O [butirosin B, 1-N-((S)-α-hydroxy-γ-amino-n-butyryl)-5-O-β-D-ribofuranosylneamine] |  |  |  |  |  |  |  |  |  |  |  |  | active against some kanamycin-resistant bacteria and some ribostamycin-resistant bacteria | 
CNC[C@H]1O[C@H](O[C@H]2[C@H](O)[C@@H](O[C@H]3O[C@H](CO)[C@@H](O)[C@H](N)[C@H]3O)[C@H](NC(=O)[C@@H](O)CCN)C[C@@H]2N)[C@H](O)C[C@@H]1O [S-AHB-MDKA, 1-N-((S)-γ-amino-α-hydroxybutyryl)-6'-N-methyl-3'-deoxykanamycin A] | 1.56 (≈ 2.67 µM) | 1.56 (≈ 2.67 µM) | 0.78 (≈ 1.34 µM) | 1.56 (≈ 2.67 µM) | 0.78 (≈ 1.34 µM) | 3.12 (≈ 5.35 µM) | 0.39 (≈ 0.668 µM) | 3.12 (≈ 5.35 µM) | 6.25 (≈ 10.7 µM) | 3.12 (≈ 5.35 µM) | 0.78 (≈ 1.34 µM) |  |  | 
CNC[C@H]1O[C@H](O[C@H]2[C@H](O)[C@@H](O[C@H]3O[C@H](CO)[C@@H](O)[C@H](N)[C@H]3O)[C@H](N)C[C@@H]2N)[C@H](N)C[C@@H]1O [6'-N-methyl-3'-deoxykanamycin B] |  |  |  |  |  |  |  |  |  |  |  |  |  | active against various kanamycin-resistant bacteria and Pseudomonas aeruginosa
NC[C@@H]1CC[C@@H](N)[C@@H](O[C@H]2[C@H](O[C@@H]3O[C@H](CO)[C@@H](O)[C@H]3O)[C@@H](O)[C@H](N)C[C@@H]2N)O1 [3',4'-dideoxyribostamycin] |  |  |  |  |  |  |  |  |  |  |  | practically effective against the drug-resistant bacteria |  | 
NCC(O)C(=O)N[C@@H]1C[C@H](N)[C@@H](O[C@H]2O[C@H](CN)[C@@H](O)C[C@H]2O)[C@H](O)[C@H]1O[C@H]1O[C@H](CO)[C@@H](O)[C@H](N)[C@H]1O (stereo partly drawn) [SR-AHP-DKA, 1-N-((SR)-β-amino-α-hydroxypropionyl)-3'-deoxykanamycin A] | 1.56 (≈ 2.81 µM) | 1.56 (≈ 2.81 µM) | 0.78 (≈ 1.4 µM) | 0.78 (≈ 1.4 µM) | 0.78 (≈ 1.4 µM) | 0.78 (≈ 1.4 µM) | 0.39 (≈ 0.702 µM) | 3.12 (≈ 5.62 µM) | > 100 | 6.25 (≈ 11.2 µM) | 0.78 (≈ 1.4 µM) |  |  | 
NCC[C@H](O)C(=O)N[C@@H]1C[C@H](N)[C@@H](O[C@H]2O[C@H](CN)[C@@H](O)[C@H](O)[C@H]2O)[C@H](O)[C@H]1O[C@H]1O[C@H](CO)[C@@H](O)[C@H](N)[C@H]1O [AHB-KMA, 1-N-((S)-γ-amino-α-hydroxybutyryl)kanamycin A, reference compound] | 3.12 (≈ 5.33 µM) | 0.78 (≈ 1.33 µM) | 0.78 (≈ 1.33 µM) | 0.78 (≈ 1.33 µM) | 1.56 (≈ 2.66 µM) | 0.78 (≈ 1.33 µM) | 0.78 (≈ 1.33 µM) | 3.12 (≈ 5.33 µM) | 100 (≈ 171 µM) | 6.25 (≈ 10.7 µM) | 0.78 (≈ 1.33 µM) |  |  | 
CNC[C@@H]1CC[C@@H](N)[C@@H](O[C@H]2[C@H](O)[C@@H](O[C@H]3O[C@H](CO)[C@@H](O)[C@H](N)[C@H]3O)[C@H](N)C[C@@H]2N)O1 [6'-N-methyl-3',4'-dideoxykanamycin B] |  |  |  |  |  |  |  |  |  |  |  |  |  | active against various kanamycin-resistant bacteria and Pseudomonas aeruginosa
NCCC[C@H](O)C(=O)N[C@@H]1C[C@H](N)[C@@H](O[C@H]2O[C@H](CN)[C@@H](O)C[C@H]2O)[C@H](O)[C@H]1O[C@H]1O[C@H](CO)[C@@H](O)[C@H](N)[C@H]1O [S-AHV-DKA, 1-N-((S)-δ-amino-α-hydroxyvaleryl)-3'-deoxykanamycin A] | 3.12 (≈ 5.35 µM) | 3.12 (≈ 5.35 µM) | 3.12 (≈ 5.35 µM) | 1.56 (≈ 2.67 µM) | 1.56 (≈ 2.67 µM) | 3.12 (≈ 5.35 µM) | 0.78 (≈ 1.34 µM) | 3.12 (≈ 5.35 µM) | > 100 | 6.25 (≈ 10.7 µM) | 0.78 (≈ 1.34 µM) |  |  | 
NC[C@@H]1CC[C@@H](N)[C@@H](O[C@H]2[C@H](O)[C@@H](O[C@H]3O[C@H](CO)[C@@H](O)[C@H](N)[C@H]3O)[C@H](N)C[C@@H]2N)O1 [3',4'-dideoxykanamycin B] |  |  |  |  |  |  |  |  |  |  |  | practically effective against the drug-resistant bacteria |  | 
